Each block holds one compound with its values, some of them ahead of it.
Columns and labels:
[1] = tested on: human coronary artery smooth muscle cells; test: Anti-proliferative activity in synchronized cultured cells stimulated with two percent fetal bovine serum; details: synchronized cells treated with rapamycin
cell viability = test: Cell viability assay; type: cell-based
[2] = In vivo release kinetics from rapamycin/cladribine EVA/BMA basecoat, porcine pharmacokinetics studies (FIG. 62, 63); details: EVA/BMA basecoat with 200 μg BMA topcoat, Yorkshire pigs
Text: (§1) The basecoat is applied to Bx Velocity® stents and implanted into Yorkshire pigs.
as §1

[3] = In vivo release kinetics of cladribine from PVDF/HFP coating on Bx Velocity stents (FIG. 61); details: PVDF/HFP 85/15 basecoat 1800 μg (30 % cladribine), 300 μg topcoat, Yorkshire pig
Text: FIG. 61 is a graphical representation of the in vivo release kinetics of cladribine from a polymeric coating on Bx Velocity® stents, available from Cordis Corporation, implanted in a Yorkshire pig. The basecoat comprises an 85/15 ratio of PVDF and HFP and cladribine for a total combined weight of one thousand eight hundred micrograms (cladribine comprising thirty percent of the total weight). The topcoat comprises an 85/15 ratio of PVDF/HFP and no cladribine. The total weight of the topcoat is three hundred micrograms.

human endothelial cells = test: Cladribine Example, PDGF-stimulated proliferation of endothelial cells; type: cell-based; details: EC, Cladribine 10.000 nM
Method: (§2) To assess the ability of cladribine to prevent cell proliferation, human smooth muscle or endothelial cells (Clonetics, Walkersville, Md.) were seeded at a density of 2000 cells/cm^2 (approximately 3600 cells/well) into each well of 12-well plates and cultured with 1.5 ml of growth medium containing five percent fetal calf serum (FCS). After twenty-four hours, the growth medium was changed and fresh medium containing 10 ng/ml platelet-derived growth factor AB (PDGF AB; LIFE Technologies), as well as various concentrations of cladribine (0.001-10,000 nM) were added with triplicate wells. Medium was replaced with fresh cladribine-containing medium after three days. On day six, cells were detached by trypsinization to yield a cell suspension, lightly centrifuged to pellet and then counted manually using a Neubauer hemocytometer system. Cell viability was assessed by trypan blue exclusion.

[4] = tested on: human smooth muscle cells; test: Cladribine Example, PDGF-stimulated proliferation of smooth muscle cells; type: cell-based
Method: as §2

[5] = tested on: human coronary artery smooth muscle cells; test: Anti-proliferative activity in non-synchronized cultured cells stimulated with two percent fetal bovine serum; type: cell-based; details: for effect of addition on the anti-proliferative rapamycin dose response curve: non-synchronized cells treated with rapamycin, two percent fetal bovine serum
Text: The multiple curves represent various concentrations of mycophenolic acid ranging from zero to one thousand nanomolar concentrations.
The multiple curves represent various concentrations of cladribine ranging from zero to nine hundred nanomolar concentrations.

[6] = In vivo release kinetics from rapamycin/mycophenolic acid EVA/BMA basecoat, porcine pharmacokinetics studies (FIG. 53, 54); details: EVA/BMA basecoat 600 μg with 180 μg each drug, no or 100/200 μg BMA topcoat
[7] = tested on: human coronary artery smooth muscle cell proliferation; test: In vitro cell culture study, coronary artery smooth muscle cell proliferation (FIG. 51); type: cell-based
Text: FIG. 51 is a graph of the inhibition of coronary artery smooth muscle cells by trichostatin A in a cell culture study.

SMILES: CC[C@@]1(O)C(=O)OCc2c1cc1n(c2=O)Cc2cc3c(CN(C)C)c(O)ccc3nc2-1 [topotecan]
effect of addition on the anti-proliferative rapamycin dose response curve [1]: potentiate the anti-proliferative activity of rapamycin
cytotoxicity in cell viability assay (cell viability; concentrations up to one micromolar): non-cytotoxic

in vivo elution from stent coating compared with rapamycin [2]: elutes more rapidly than rapamycin
SMILES: Nc1nc(Cl)nc2c1ncn2[C@H]1C[C@H](O)[C@@H](CO)O1 [Cladribine, 2-chlorodeoxyadenosine]
in vivo elution from stent coating over time [3]: after the first day, the elution of cladribine levels off significantly
% of PDGF-stimulated increase in cell count (human endothelial cells): 10%
% of PDGF-stimulated increase in cell count ([4]; SMC, Cladribine 10.000 nM): −4%
potency on smooth muscle cells relative to endothelial cells ([4]; from IC50 values 23 and 40 nanomolar): approximately twice as potent
effect of addition on the anti-proliferative rapamycin dose response curve [5]: potentiate the anti-proliferative activity of rapamycin
inhibition of human coronary artery smooth muscle cell proliferation ([5]; non-synchronized cells, two percent fetal bovine serum (FIG. 58)): completely inhibits

SMILES: COc1c(C)c2c(c(O)c1C/C=C(\C)CCC(=O)O)C(=O)OC2 [mycophenolic acid]
in vivo release from stent coating compared with rapamycin [6]: elutes more completely over a shorter duration than the rapamycin
effect of addition on the anti-proliferative rapamycin dose response curve [5]: potentiates the anti-proliferative activity of rapamycin

SMILES: COc1cc([C@@H]2c3cc4c(cc3[C@@H](O[C@@H]3O[C@@H]5CO[C@@H](C)O[C@H]5[C@H](O)[C@H]3O)[C@H]3COC(=O)[C@H]23)OCO4)cc(OC)c1O [etoposide]
effect of addition on the anti-proliferative rapamycin dose response curve [1]: increases the percent inhibition of rapamycin alone
cytotoxicity in cell viability assay (cell viability; concentrations up to ten micromolar): non-cytotoxic
effect of addition on the anti-proliferative rapamycin dose response curve [5]: potentiate the anti-proliferative activity of rapamycin

SMILES: CC(/C=C/C(=O)NO)=C\[C@@H](C)C(=O)c1ccc(N(C)C)cc1 [trichostatin A]
inhibition of human coronary artery smooth muscle cell proliferation [7]: completely inhibit
IC50 ([7]; read-out: anti-proliferative IC50): ~6 nM

Reference: patent US7695731B2 (Cordis Corporation, priority 2004, dated 2010)
